# Laboratory results taken from ChEMBL document CHEMBL4308841, “Synthesis, in vitro antiproliferative activity, and kinase inhibitory effects of pyrazole-containing diarylureas and diarylamides” (Eur J Med Chem, 2018).
# Experiments:
# [1] = tested on: SK-MEL-2; experiment: Growth inhibition of human SK-MEL-2 cells assessed as cell growth at 10 uM incubated for 48 hrs by sulforhodamine B assay relative to control; assay type: functional; settings: SK-MEL-2, 48 h, read-out: Activity
# [2] = tested on: COLO 205; experiment: Growth inhibition of human COLO205 cells assessed as cell growth at 0.01 uM incubated for 48 hrs by sulforhodamine B assay relative to control; assay type: functional; settings: COLO 205, 48 h, read-out: Activity
# [3] = tested on: IGROV-1; experiment: Growth inhibition of human IGROV1 cells assessed as cell growth at 100 uM incubated for 48 hrs by sulforhodamine B assay relative to control; assay type: functional; settings: IGROV-1, 48 h, read-out: Activity
# [4] = tested on: HCT-116; experiment: Growth inhibition of human HCT116 cells assessed as cell growth at 100 uM incubated for 48 hrs by sulforhodamine B assay relative to control; assay type: functional; settings: HCT-116, 48 h, read-out: Activity
# [5] = tested on: SW-620; experiment: Growth inhibition of human SW620 cells assessed as cell growth at 1 uM incubated for 48 hrs by sulforhodamine B assay relative to control; assay type: functional; settings: SW-620, 48 h, read-out: Activity
# [6] = tested on: Hs-578T; experiment: Growth inhibition of human Hs578T cells assessed as cell growth at 0.01 uM incubated for 48 hrs by sulforhodamine B assay relative to control; assay type: functional; settings: read-out: Activity
# [7] = tested on: OVCAR-5; experiment: Growth inhibition of human OVCAR5 cells assessed as cell growth at 0.01 uM incubated for 48 hrs by sulforhodamine B assay relative to control; assay type: functional; settings: OVCAR-5, 48 h, read-out: Activity
# [8] = tested on: M14; experiment: Growth inhibition of human M14 cells incubated for 48 hrs by sulforhodamine B assay; assay type: functional, cell-based; settings: M14, 48 h
# [9] = tested on: SK-MEL-28; experiment: Growth inhibition of human SK-MEL-28 cells assessed as cell growth at 0.01 uM incubated for 48 hrs by sulforhodamine B assay relative to control; assay type: functional; settings: SK-MEL-28, 48 h, read-out: Activity
# [10] = tested on: UACC-62; experiment: Growth inhibition of human UACC62 cells assessed as cell growth at 0.01 uM incubated for 48 hrs by sulforhodamine B assay relative to control; assay type: functional; settings: UACC-62, 48 h, read-out: Activity
# [11] = tested on: SK-MEL-2; experiment: Growth inhibition of human SK-MEL-2 cells assessed as cell growth at 1 uM incubated for 48 hrs by sulforhodamine B assay relative to control; assay type: functional; settings: SK-MEL-2, 48 h, read-out: Activity
# [12] = tested on: LOX IMVI; experiment: Growth inhibition of human LOXIMVI cells assessed as cell growth at 0.01 uM incubated for 48 hrs by sulforhodamine B assay relative to control; assay type: functional; settings: read-out: Activity
# [13] = tested on: UO-31; experiment: Growth inhibition of human UO31 cells assessed as cell growth at 0.01 uM incubated for 48 hrs by sulforhodamine B assay relative to control; assay type: functional; settings: UO-31, 48 h, read-out: Activity
# [14] = tested on: U-251; experiment: Growth inhibition of human U251 cells assessed as cell growth at 1 uM incubated for 48 hrs by sulforhodamine B assay relative to control; assay type: functional; settings: U-251, 48 h, read-out: Activity
# [15] = tested on: MOLT-4; experiment: Growth inhibition of human MOLT4 cells assessed as cell growth at 100 uM incubated for 48 hrs by sulforhodamine B assay relative to control; assay type: functional; settings: MOLT-4, 48 h, read-out: Activity
# [16] = tested on: OVCAR-8; experiment: Growth inhibition of human OVCAR8 cells assessed as cell growth at 1 uM incubated for 48 hrs by sulforhodamine B assay relative to control; assay type: functional; settings: OVCAR-8, 48 h, read-out: Activity
# [17] = tested on: NCI-H522; experiment: Growth inhibition of human NCI-H522 cells assessed as cell growth at 100 uM incubated for 48 hrs by sulforhodamine B assay relative to control; assay type: functional; settings: NCI-H522, 48 h, read-out: Activity
# [18] = tested on: OVCAR-4; experiment: Growth inhibition of human OVCAR4 cells assessed as cell growth at 0.01 uM incubated for 48 hrs by sulforhodamine B assay relative to control; assay type: functional; settings: OVCAR-4, 48 h, read-out: Activity
# [19] = tested on: RPMI-8226; experiment: Growth inhibition of human RPMI8226 cells assessed as cell growth at 0.01 uM incubated for 48 hrs by sulforhodamine B assay relative to control; assay type: functional; settings: RPMI-8226, 48 h, read-out: Activity
# [20] = tested on: SK-MEL-5; experiment: Growth inhibition of human SK-MEL-5 cells incubated for 48 hrs by sulforhodamine B assay; assay type: functional, cell-based; settings: SK-MEL-5, 48 h
# [21] = tested on: HOP-62; experiment: Growth inhibition of human HOP62 cells assessed as cell growth at 0.1 uM incubated for 48 hrs by sulforhodamine B assay relative to control; assay type: functional; settings: HOP-62, 48 h, read-out: Activity
# [22] = tested on: MDA-MB-435; experiment: Growth inhibition of human MDA-MB-435 cells assessed as cell growth at 0.01 uM incubated for 48 hrs by sulforhodamine B assay relative to control; assay type: functional; settings: MDA-MB-435, 48 h, read-out: Activity
# [23] = tested on: MDA-MB-435; experiment: Growth inhibition of human MDA-MB-435 cells incubated for 48 hrs by sulforhodamine B assay; assay type: functional, cell-based; settings: MDA-MB-435, 48 h
# [24] = tested on: SK-OV-3; experiment: Growth inhibition of human SKOV3 cells assessed as cell growth at 100 uM incubated for 48 hrs by sulforhodamine B assay relative to control; assay type: functional; settings: SK-OV-3, 48 h, read-out: Activity
# [25] = tested on: NCI-H460; experiment: Growth inhibition of human NCI-H460 cells assessed as cell growth at 1 uM incubated for 48 hrs by sulforhodamine B assay relative to control; assay type: functional; settings: NCI-H460, 48 h, read-out: Activity
# [26] = tested on: NCI/ADR-RES; experiment: Growth inhibition of human NCI/ADR-RES cells assessed as cell growth at 0.01 uM incubated for 48 hrs by sulforhodamine B assay relative to control; assay type: functional; settings: read-out: Activity
# [27] = tested on: ACHN; experiment: Growth inhibition of human ACHN cells assessed as cell growth at 1 uM incubated for 48 hrs by sulforhodamine B assay relative to control; assay type: functional; settings: read-out: Activity
# [28] = tested on: LOX IMVI; experiment: Growth inhibition of human LOXIMVI cells assessed as cell growth at 100 uM incubated for 48 hrs by sulforhodamine B assay relative to control; assay type: functional; settings: read-out: Activity
# [29] = tested on: 786-0; experiment: Growth inhibition of human 786-0 cells assessed as cell growth at 0.1 uM incubated for 48 hrs by sulforhodamine B assay relative to control; assay type: functional; settings: 786-0, 48 h, read-out: Activity
# [30] = tested on: HL-60(TB); experiment: Growth inhibition of human HL-60(TB) cells assessed as cell growth at 0.01 uM incubated for 48 hrs by sulforhodamine B assay relative to control; assay type: functional; settings: HL-60, 48 h, read-out: Activity
# [31] = tested on: HL-60(TB); experiment: Growth inhibition of human HL-60(TB) cells assessed as cell growth at 100 uM incubated for 48 hrs by sulforhodamine B assay relative to control; assay type: functional; settings: HL-60, 48 h, read-out: Activity
# [32] = read-out: LC50 (the source's name)
# [33] = read-out: pLC50 (the source's name) (converted)
smiles,measurement,setting,value
COc1cc(Cl)cc(-c2nn(-c3cccc(NC(=O)c4ccc(Cl)c(Cl)c4)c3)cc2-c2ccncc2)c1,growth at 10 µM,[1],78.4%
O=C(Nc1cccc(-n2cc(-c3ccncc3)c(-c3cc(O)cc(Cl)c3)n2)c1)c1cc(C(F)(F)F)cc(C(F)(F)F)c1,growth at 0.01 µM,[2],102%
same,growth at 100 µM,[3],22%
same,growth at 100 µM,[4],5%
same,growth at 1 µM,[5],100%
same,growth at 0.01 µM,[6],93%
same,growth at 0.01 µM,[7],92%
same,GI50,[8]; read-out: GI50,3.01 µM
same,CC50,[8]; [32],> 100 µM
same,TGI,[8]; read-out: TGI,> 100 µM
same,GI50,[8]; read-out: pGI50 (converted),3.02 µM
same,CC50,[8]; [33],> 100 µM
same,TGI,[8]; read-out: pTGI (converted),> 100 µM
same,growth at 0.01 µM,[9],99%
same,growth at 0.01 µM,[10],90%
same,growth at 1 µM,[11],106%
same,growth at 0.01 µM,[12],101%
same,growth at 0.01 µM,[13],57%
same,growth at 1 µM,[14],53%
same,growth at 10 µM,[1],57.8%
same,growth at 100 µM,[15],3%
same,growth at 1 µM,[16],91%
same,growth at 100 µM,[17],-18%
same,growth at 0.01 µM,[18],96%
same,growth at 0.01 µM,[19],105%
same,GI50,[20]; read-out: GI50,2.51 µM
same,CC50,[20]; [32],> 100 µM
same,TGI,[20]; read-out: TGI,86.7 µM
same,GI50,[20]; read-out: pGI50 (converted),2.63 µM
same,CC50,[20]; [33],> 100 µM
same,TGI,[20]; read-out: pTGI (converted),8.91 µM
same,growth at 0.1 µM,[21],100%
same,growth at 0.01 µM,[22],91%
same,GI50,[23]; read-out: GI50,3.18 µM
same,LC50,[23]; read-out: LC50,> 100 µM
same,TGI,[23]; read-out: TGI,> 100 µM
same,GI50,[23]; read-out: pGI50 (converted),3.16 µM
same,LC50,[23]; read-out: pLC50 (converted),> 100 µM
same,TGI,[23]; read-out: pTGI (converted),> 100 µM
same,growth at 100 µM,[24],30%
same,growth at 1 µM,[25],92%
same,growth at 0.01 µM,[26],101%
same,growth at 1 µM,[27],99%
same,growth at 100 µM,[28],-41%
same,growth at 0.1 µM,[29],97%
COc1cc(Cl)cc(-c2nn(-c3cccc(NC(=O)Nc4ccc(Cl)c(Cl)c4)c3)cc2-c2ccncc2)c1,growth at 0.01 µM,[2],99%
same,growth at 100 µM,[3],8%
same,growth at 1 µM,[5],93%
same,growth at 0.01 µM,[6],93%
same,growth at 0.01 µM,[30],99%
same,growth at 0.01 µM,[7],93%
same,GI50,[8]; read-out: GI50,2.52 µM
same,CC50,[8]; [32],> 100 µM
same,TGI,[8]; read-out: TGI,10 µM
same,GI50,[8]; read-out: pGI50 (converted),3.16 µM
same,CC50,[8]; [33],> 100 µM
same,TGI,[8]; read-out: pTGI (converted),11 µM
same,growth at 0.01 µM,[9],101%
same,growth at 0.01 µM,[10],95%
same,growth at 1 µM,[11],80%
same,growth at 0.01 µM,[12],96%
same,growth at 0.01 µM,[13],89%
same,growth at 1 µM,[14],71%
same,growth at 10 µM,[1],-32.1%
same,growth at 100 µM,[15],-7%
same,growth at 1 µM,[16],78%
same,growth at 100 µM,[17],-15%
same,growth at 0.01 µM,[18],93%
same,growth at 0.01 µM,[19],99%
same,GI50,[20]; read-out: GI50,1.52 µM
same,CC50,[20]; [32],6.23 µM
same,TGI,[20]; read-out: TGI,31.7 µM
same,GI50,[20]; read-out: pGI50 (converted),1.62 µM
same,CC50,[20]; [33],6.17 µM
same,TGI,[20]; read-out: pTGI (converted),3.16 µM
same,growth at 0.1 µM,[21],94%
same,growth at 0.01 µM,[22],93%
same,GI50,[23]; read-out: GI50,2.06 µM
same,LC50,[23]; read-out: LC50,> 100 µM
same,TGI,[23]; read-out: TGI,60 µM
same,GI50,[23]; read-out: pGI50 (converted),2.09 µM
same,LC50,[23]; read-out: pLC50 (converted),> 100 µM
same,TGI,[23]; read-out: pTGI (converted),6.03 µM
same,growth at 1 µM,[25],77%
same,growth at 0.01 µM,[26],97%
same,growth at 1 µM,[27],91%
same,growth at 100 µM,[28],-30%
same,growth at 0.1 µM,[29],98%
same,growth at 100 µM,[31],-30%
